Patent EP0933350A1, “Tricyclic retinoids, methods for their production and use” (LIGAND PHARMACEUTICALS INCORPORATED, priority 1994, dated 1996)

What was measured:
TPA induction of ODC = assay: ornithine decarboxylase (ODC) assay: inhibition of TPA induction of ODC; assay type: cell-based; settings: concentration required to inhibit the TPA induction of ODC by 80 percent
ME 180 cell line [1] = assay: incorporation of 3H-thymidine (antiproliferative); assay type: cell-based; settings: Homo sapiens, 96 hours, radiolabeled thymidine incorporation, read-out: TdR IC50
ME 180 cell line [2] = assay: viability (tetrazolium dye, mitochondrial function); assay type: cell-based; settings: Homo sapiens, 96 hours, read-out: MTS IC50
AML-193 cell line [3] = assay: as above; assay type: cell-based; settings: Homo sapiens, 96 hours, read-out: MTS IC50
AML-193 cell line [4] = assay: incorporation of 3H-thymidine (antiproliferative); settings: Homo sapiens, 96 h, read-out: TdR IC50 (nM)
RPMI 8226 cell line [5] = assay: viability (tetrazolium dye, mitochondrial function); assay type: cell-based; settings: Homo sapiens, 96 hours, read-out: MTS IC50
RPMI 8226 cell line [6] = assay: incorporation of 3H-thymidine (antiproliferative); assay type: cell-based; settings: Homo sapiens, 96 hours, radiolabeled thymidine incorporation, read-out: TdR IC50

Compound | IC80 (TPA induction of ODC) [nM] | IC50 (ME 180 cell line [1]) [nM] | IC50 (ME 180 cell line [2]) [nM] | IC50 (AML-193 cell line [3]) [nM] | IC50 (AML-193 cell line [4]) [nM] | IC50 (RPMI 8226 cell line [5]) [nM] | IC50 (RPMI 8226 cell line [6]) [nM]
CCOC(=O)/C=C(C)/C=C/C=C1/CCCc2cc3c(cc21)C(C)(C)CCC3(C)C [Compound 101a, Ethyl (2E,4E)-3-methyl-6-[(Z)-3,4,5,6,7,8-hexahydro-5,5,8,8-tetramethyl-2H-anthracen-1-ylidene]hexa-2,4-dienoate] | 91 |  |  |  |  |  | 
CC(/C=C/C=C1/CC(C)(C)Oc2cc3c(cc21)C(C)(C)CCC3(C)C)=C\C(=O)O [Compound 104b, (2E,4E)-3-Methyl-6-(2,3,6,7,8,9-hexahydro-2,2,6,6,9,9-hexamethylbenzo[b]-chromen-4-ylidene)-hexa-2,4-dienoic acid] |  | 90 | 1000 | 1000 | 90 | 90 | 30
